# From US12378243B2, “Quinoline compounds as inhibitors of KRAS” (Incyte Corporation, priority 2021, dated 2025)
# Key:
# KRAS G12V mutant = KRAS G12V mutant (Homo sapiens, UniProt P01116, G12V); assay: GDP-GTP exchange assay, KRAS G12V; assay type: biochemical; settings: bodipy loaded KRAS G12V 2.5 nM; 3 hours incubation after adding GppNHp-SOS1 mixture; read-out: G12V_exchange
# Caco-2 cells = assay: Caco2 assay (permeability, A-B); assay type: in vitro ADME; settings: Papp absorptive direction (A-B), test compound 50 μM, 120 minutes at 37° C.
# Procedure, shortened: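 Caco-2 monolayers grown 22-25 days on Transwells, used only at TEER ≥300 Ω·cm^2. Compound at 50 μM in HBSS added apically, receiver HBSS with 4% BSA; 120 min at 37 °C. LCMS quantification; Papp from receiver flux slope, membrane area and initial donor amount.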
# KRAS G12D = KRAS G12D (Homo sapiens, UniProt P01116, G12D); assay: GDP-GTP exchange assay, KRAS G12D; assay type: biochemical; settings: bodipy-loaded KRAS G12D 2.5 nM, GppNHp 500 uM, SOS1 150 nM; 4 hours pre-incubation, 2 hours incubation; read-out: G12D_exchange
# Sequence of KRAS G12D (P01116 1-188 isoform P01116-2 G12D): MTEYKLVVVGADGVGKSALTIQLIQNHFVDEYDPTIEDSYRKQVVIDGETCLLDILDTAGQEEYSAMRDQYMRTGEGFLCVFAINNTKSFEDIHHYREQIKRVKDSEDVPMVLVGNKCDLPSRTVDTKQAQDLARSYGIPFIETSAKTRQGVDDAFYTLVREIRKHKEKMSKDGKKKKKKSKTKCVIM
# Procedure, shortened: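 Nucleotide exchange started with 1 mM GppNHp and 300 nM SOS1, then 2 h at ambient temperature. IC50 from four-parameter logistic fit with variable Hill slope.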
# Sequence of KRAS G12V mutant (P01116 1-188 isoform P01116-2 G12V): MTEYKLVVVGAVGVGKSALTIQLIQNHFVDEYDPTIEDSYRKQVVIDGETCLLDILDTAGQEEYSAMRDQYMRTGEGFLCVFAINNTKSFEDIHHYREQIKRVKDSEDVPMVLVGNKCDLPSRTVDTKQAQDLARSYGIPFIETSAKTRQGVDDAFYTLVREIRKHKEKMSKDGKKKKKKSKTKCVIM
SMILES,IC50 (KRAS G12V mutant),Caco-2 (Caco-2 cells; Table 4),IC50 (KRAS G12D),Caco-2 (Caco-2 cells; Table 3)
"Cc1nc2c(F)c(-c3cccc(Cl)c3Cl)c(CCC#N)cc2c2c1cc([C@@H](C)N(C)C(=O)C1CC1)n2[C@H]1[C@H]2CN[C@@H]1C2 [Example 60, N-((1R)-1-(1-((1R,4R,5S)-2-Azabicyclo[2.1.1]hexan-5-yl)-8-(2-cyanoethyl)-7-(2,3-dichlorophenyl)-6-fluoro-4-methyl-1H-pyrrolo[3,2-c]quinolin-2-yl)ethyl)-N-methylcyclopropanecarboxamide]",100 to 1000 nM,+++ (a Caco-2 value of >1),< 100 nM,
"CN(C)C(=O)N1CCC[C@@H]1c1cc2c(-n3cncn3)nc3c(F)c(-c4cccc(Cl)c4Cl)c(CCC#N)cc3c2n1[C@H]1[C@H]2CN[C@@H]1C2 [Example 28, (2R)-2-(1-((1R,4R,5S)-2-azabicyclo[2.1.1]hexan-5-yl)-8-(2-cyanoethyl)-7-(2,3-dichlorophenyl)-6-fluoro-4-(1H-1,2,4-triazol-1-yl)-1H-pyrrolo[3,2-c]quinolin-2-yl)-N,N-dimethylpyrrolidine-1-carboxamide]",100 to 1000 nM,+++ (a Caco-2 value of >1),< 100 nM,
"Cc1cc2c(-c3c(CCC#N)cc4c(nc(O[C@@H](C)[C@@H]5CCCN5C)c5cc(C)n([C@H]6[C@H]7CN[C@@H]6C7)c54)c3F)c[nH]c2cc1F [Example 3, 3-(1-((1R,4R,5S)-2-Azabicyclo[2.1.1]hexan-5-yl)-6-fluoro-7-(6-fluoro-5-methyl-1H-indol-3-yl)-2-methyl-4-((S)-1-((S)-1-methylpyrrolidin-2-yl)ethoxy)-1H-pyrrolo[3,2-c]quinolin-8-yl)propanenitrile]",< 100 nM,,< 100 nM,+ (a Caco-2 value of 50.5)
"C[C@H](c1cc2c(-c3ccc(C(C)(C)O)nc3)nc3c(F)c(-c4cccc5ccc(F)cc45)c(CCC#N)cc3c2n1[C@H]1[C@H]2CN[C@@H]1C2)N1CCOCC1=O [Example 46, 3-(1-((1R,4R,5S)-2-Azabicyclo[2.1.1]hexan-5-yl)-6-fluoro-7-(7-fluoronaphthalen-1-yl)-4-(6-(2-hydroxypropan-2-yl)pyridin-3-yl)-2-((R)-1-(3-oxomorpholino)ethyl)-1H-pyrrolo[3,2-c]quinolin-8-yl)propanenitrile]",< 100 nM,+++ (a Caco-2 value of >1),< 100 nM,
"COC(=O)N1[C@@H](c2cc3c(-c4ccc(C(=O)N(C)C)nc4)nc4c(F)c(-c5cccc(Cl)c5Cl)c(CCC#N)cc4c3n2[C@H]2[C@H]3CN[C@@H]2C3)C[C@H]2C[C@H]21 [Example 48, Methyl (1R,3R,5R)-3-(1-((1R,4R,5S)-2-azabicyclo[2.1.1]hexan-5-yl)-8-(2-cyanoethyl)-7-(2,3-dichlorophenyl)-4-(6-(dimethylcarbamoyl)pyridin-3-yl)-6-fluoro-1H-pyrrolo[3,2-c]quinolin-2-yl)-2-azabicyclo[3.1.0]hexane-2-carboxylate]",< 100 nM,++ (a Caco-2 value of >0.5 but ≤1),< 100 nM,
"C[C@H](Oc1nc2c(F)c(-c3csc4ccccc34)c(CCC#N)cc2c2c1cc(CN1CCCC1=O)n2[C@H]1[C@H]2CN[C@@H]1C2)[C@@H]1CCCN1C (single isomer, unassigned) [Example 9]",< 100 nM,,< 100 nM,+ (a Caco-2 value of 50.5)
"COC(=O)N1[C@H](C)CC[C@@H]1c1cc2c(-c3ccc(C(C)(C)O)nc3)nc3c(F)c(-c4cccc(Cl)c4Cl)c(CCC#N)cc3c2n1[C@H]1[C@H]2CN[C@@H]1C2 [Example 52, Methyl (2R,5R)-2-(1-((1R,4R,5S)-2-azabicyclo[2.1.1]hexan-5-yl)-8-(2-cyanoethyl)-7-(2,3-dichlorophenyl)-6-fluoro-4-(6-(2-hydroxypropan-2-yl)pyridin-3-yl)-1H-pyrrolo[3,2-c]quinolin-2-yl)-5-methylpyrrolidine-1-carboxylate]",< 100 nM,+++ (a Caco-2 value of >1),< 100 nM,
"CNC(=O)c1ccc(-c2nc3c(F)c(-c4cccc(Cl)c4Cl)c(CCC#N)cc3c3c2cc([C@H]2CCCN2C(=O)OC)n3[C@H]2[C@H]3CN[C@@H]2C3)cn1 [Example 33, Methyl (2R)-2-(1-((1R,4R,5S)-2-azabicyclo[2.1.1]hexan-5-yl)-8-(2-cyanoethyl)-7-(2,3-dichlorophenyl)-6-fluoro-4-(6-(methylcarbamoyl)pyridin-3-yl)-1H-pyrrolo[3,2-c]quinolin-2-yl)pyrrolidine-1-carboxylate]",< 100 nM,++ (a Caco-2 value of >0.5 but ≤1),< 100 nM,
"Cc1nc2c(F)c(-c3cccc(Cl)c3Cl)c(CCC#N)cc2c2c1cc(C1CCc3cccc(=O)n31)n2[C@H]1[C@H]2CN[C@@H]1C2 (single isomer, unassigned) [Example 31]",< 100 nM,+ (a Caco-2 value of 50.5),< 100 nM,
"CCOc1nc2c(F)c(-c3cc(O)cc(Cl)c3Cl)c(CCC#N)cc2c2c1cc(CN1CCN(C(C)C)CC1=O)n2[C@H]1[C@H]2CN[C@@H]1C2 [Example 16, 3-(1-((1R,4R,5S)-2-azabicyclo[2.1.1]hexan-5-yl)-7-(2,3-dichloro-5-hydroxyphenyl)-4-ethoxy-6-fluoro-2-((4-isopropyl-2-oxopiperazin-1-yl)methyl)-1H-pyrrolo[3,2-c]quinolin-8-yl)propanenitrile]",< 100 nM,,< 100 nM,+ (a Caco-2 value of 50.5)
"Cc1nc2c(F)c(-c3cccc(F)c3Cl)c(CCC#N)cc2c2c1cc([C@H]1CCCN1C(=O)C1CC1)n2[C@H]1[C@H]2CN[C@@H]1C2 [Example 34, 3-(1-((1R,4R,5S)-2-Azabicyclo[2.1.1]hexan-5-yl)-7-(2-chloro-3-fluorophenyl)-2-((R)-1-(cyclopropanecarbonyl)pyrrolidin-2-yl)-6-fluoro-4-methyl-1H-pyrrolo[3,2-c]quinolin-8-yl)propanenitrile]",100 to 1000 nM,+ (a Caco-2 value of 50.5),< 100 nM,
"COC(=O)N1CCC[C@@H]1c1cc2c(-n3cncn3)nc3c(F)c(-c4cccc(C)c4Cl)c(CCC#N)cc3c2n1[C@H]1[C@H]2CN[C@@H]1C2 [Example 29, Methyl (2R)-2-(1-((1R,4R,5S)-2-azabicyclo[2.1.1]hexan-5-yl)-7-(2-chloro-3-methylphenyl)-8-(2-cyanoethyl)-6-fluoro-4-(1H-1,2,4-triazol-1-yl)-1H-pyrrolo[3,2-c]quinolin-2-yl)pyrrolidine-1-carboxylate]",< 100 nM,+++ (a Caco-2 value of >1),< 100 nM,
"C[C@H](Oc1nc2c(F)c(-c3cccc(Cl)c3Cl)c(CCC#N)cc2c2c1cc(CCC(=O)N1CCC1)n2[C@H]1[C@H]2CN[C@@H]1C2)[C@@H]1CCCN1C [Example 4, 3-(2-(3-(Azetidin-1-yl)-3-oxopropyl)-1-((1R,4R,5S)-2-azabicyclo[2.1.1]hexan-5-yl)-7-(2,3-dichlorophenyl)-6-fluoro-4-((S)-1-((S)-1-methylpyrrolidin-2-yl)ethoxy)-1H-pyrrolo[3,2-c]quinolin-8-yl)propanenitrile]",< 100 nM,,< 100 nM,+ (a Caco-2 value of 50.5)
"Cc1nc2c(F)c(-c3cccc4ccc(F)cc34)c(CCC#N)cc2c2c1cc(CN1CCN(C)CC1=O)n2[C@H]1[C@H]2CN[C@@H]1C2 [Example 15, 3-(1-((1R,4R,5S)-2-Azabicyclo[2.1.1]hexan-5-yl)-6-fluoro-7-(7-fluoronaphthalen-1-yl)-4-methyl-2-((4-methyl-2-oxopiperazin-1-yl)methyl)-1H-pyrrolo[3,2-c]quinolin-8-yl)propanenitrile]",100 to 1000 nM,,< 100 nM,++ (a Caco-2 value of >0.5 but ≤1)
"Cc1nc2c(F)c(-c3cccc(Cl)c3Cl)c(CCC#N)cc2c2c1cc([C@@H](C)Nc1cnn(C)c1)n2[C@H]1[C@H]2CN[C@@H]1C2 [Example 71, 3-(1-((1R,4R,5S)-2-azabicyclo[2.1.1]hexan-5-yl)-7-(2,3-dichlorophenyl)-6-fluoro-4-methyl-2-((R)-1-((1-methyl-1H-pyrazol-4-yl)amino)ethyl)-1H-pyrrolo[3,2-c]quinolin-8-yl)propanenitrile]",< 100 nM,+++ (a Caco-2 value of >1),< 100 nM,
"CC(O)c1nc2c(F)c(-c3cccc(Cl)c3Cl)c(CCC#N)cc2c2c1cc([C@@H](C)NC(=O)C1(C)CC1)n2[C@H]1[C@H]2CN[C@@H]1C2 (stereo partly drawn) [Example 61, N-((1R)-1-(1-((1R,4R,5S)-2-Azabicyclo[2.1.1]hexan-5-yl)-8-(2-cyanoethyl)-7-(2,3-dichlorophenyl)-6-fluoro-4-(1-hydroxyethyl)-1H-pyrrolo[3,2-c]quinolin-2-yl)ethyl)-1-methylcyclopropane-1-carboxamide]",< 100 nM,++ (a Caco-2 value of >0.5 but ≤1),< 100 nM,
"N#CCCc1cc2c(ncc3cc([C@H]4CCCN4C(=O)N4CC(F)(F)C4)n([C@H]4[C@H]5CN[C@@H]4C5)c32)c(F)c1-c1cccc(Cl)c1Cl [Example 43, 3-(1-((1R,4R,5S)-2-Azabicyclo[2.1.1]hexan-5-yl)-7-(2,3-dichlorophenyl)-2-((R)-1-(3,3-difluoroazetidine-1-carbonyl)pyrrolidin-2-yl)-6-fluoro-1H-pyrrolo[3,2-c]quinolin-8-yl)propanenitrile]",< 100 nM,+++ (a Caco-2 value of >1),< 100 nM,
